# Source: PubChem BioAssay AID1845211 (Molecular Pharmacology Branch, DTP, NCI, 2023)
# Values joined by “and” are separate entries in the source; they are usually repeats but may differ in a detail not shown here. Equal entries are not always repeated.
# Test system: NCI-H322M multicellular tumor spheroids, viability (% test/control)
# Experiment: Anticancer human tumor NCI-H322M cell line growth inhibition;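 for viability, T/C: spheroids exposed to compound for seven days before readout; 100% = DMSO vehicle control wells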
# Conditions: for viability, T/C: stronger effect = lower value
# Summary of the method: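 Complex spheroids of malignant cells with endothelial cells and mesenchymal stem cells; agents alone or combined, from near clinical Cmax (or 10 microM if unknown) down in half-log steps, 0.25% DMSO final.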
# [1] = curve of first compound, second compound 1 µM
# [2] = curve of first compound, second compound 3.16 µM
# [3] = curve of first compound, second compound 10 µM
# [4] = curve of first compound, second compound 31.6 µM
# [5] = curve of first compound, second compound 100 µM
# [6] = second compound 1 µM, first compound 0.0316 µM
# [7] = second compound 1 µM, first compound 0.1 µM
# [8] = second compound 1 µM, first compound 0.316 µM
# [9] = second compound 1 µM, first compound 1 µM
# [10] = second compound 1 µM, first compound 3.16 µM
# [11] = second compound 1 µM, first compound 10 µM
# [12] = second compound 3.16 µM, first compound 0.0316 µM
# [13] = second compound 3.16 µM, first compound 0.1 µM
# [14] = second compound 3.16 µM, first compound 0.316 µM
# [15] = second compound 3.16 µM, first compound 1 µM
# [16] = second compound 3.16 µM, first compound 3.16 µM
# [17] = second compound 3.16 µM, first compound 10 µM
# [18] = second compound 10 µM, first compound 0.0316 µM
# [19] = second compound 10 µM, first compound 0.1 µM
# [20] = second compound 10 µM, first compound 0.316 µM
# [21] = second compound 10 µM, first compound 1 µM
# [22] = second compound 10 µM, first compound 3.16 µM
# [23] = second compound 10 µM, first compound 10 µM
# [24] = second compound 31.6 µM, first compound 0.0316 µM
# [25] = second compound 31.6 µM, first compound 0.1 µM
# [26] = second compound 31.6 µM, first compound 0.316 µM
# [27] = second compound 31.6 µM, first compound 1 µM
# [28] = second compound 31.6 µM, first compound 3.16 µM
# [29] = second compound 31.6 µM, first compound 10 µM
# [30] = second compound 100 µM, first compound 0.0316 µM
# [31] = second compound 100 µM, first compound 0.1 µM
# [32] = second compound 100 µM, first compound 0.316 µM
# [33] = second compound 100 µM, first compound 1 µM
# [34] = second compound 100 µM, first compound 3.16 µM
# [35] = second compound 100 µM, first compound 10 µM
smiles,measurement,setting,value
[2H]c1nc(C)nc([2H])c1-c1cc(NC[C@@H](C)c2cccc3c(C(=O)NC)ccnc23)ncn1 + Cn1nnc2c(C(N)=O)ncn2c1=O,IC50,[1],> 10 µM
same,IC50,[2],> 10 µM
same,IC50,[3],> 10 µM
same,IC50,[4],> 10 µM
same,IC50,[5],> 10 µM
same,"viability, T/C",[6],103%
same,"viability, T/C",[7],101%
same,"viability, T/C",[8],93%
same,"viability, T/C",[9],116%
same,"viability, T/C",[10],88.2%
same,"viability, T/C",[11],84.4%
same,"viability, T/C",[12],105%
same,"viability, T/C",[13],92.1%
same,"viability, T/C",[14],94%
same,"viability, T/C",[15],97.5%
same,"viability, T/C",[16],100%
same,"viability, T/C",[17],99.3%
same,"viability, T/C",[18],85.5%
same,"viability, T/C",[19],80.7%
same,"viability, T/C",[20],77.9%
same,"viability, T/C",[21],99.2%
same,"viability, T/C",[22],107%
same,"viability, T/C",[23],116%
same,"viability, T/C",[24],81.8%
same,"viability, T/C",[25],89.3%
same,"viability, T/C",[26],89.9%
same,"viability, T/C",[27],91.9%
same,"viability, T/C",[28],102%
same,"viability, T/C",[29],99.5%
same,"viability, T/C",[30],96.8%
same,"viability, T/C",[31],88.9%
same,"viability, T/C",[32],100%
same,"viability, T/C",[33],92.5%
same,"viability, T/C",[34],91.8%
same,"viability, T/C",[35],95.3%
Cc1sc2c(c1C)C(c1ccc(Cl)cc1)=NC(CC(=O)Nc1ccc(O)cc1)c1nnc(C)n1-2 (centres undefined) + CC[C@@]1(O)C(=O)OCc2c1cc1n(c2=O)Cc2cc3c(CN(C)C)c(O)ccc3nc2-1,IC50,"curve of first compound, second compound 0.003 µM",> 3 µM
same,IC50,"curve of first compound, second compound 0.00949 µM",> 3 µM
same,IC50,"curve of first compound, second compound 0.03 µM",> 3 µM
same,IC50,"curve of first compound, second compound 0.0949 µM",> 3 µM
same,IC50,"curve of first compound, second compound 0.3 µM",> 3 µM
same,"viability, T/C","second compound 0.003 µM, first compound 0.00949 µM",105%
same,"viability, T/C","second compound 0.003 µM, first compound 0.03 µM",139%
same,"viability, T/C","second compound 0.003 µM, first compound 0.0949 µM",132%
same,"viability, T/C","second compound 0.003 µM, first compound 0.3 µM",134%
same,"viability, T/C","second compound 0.003 µM, first compound 0.949 µM",95.3%
same,"viability, T/C","second compound 0.003 µM, first compound 3 µM",76.2%
same,"viability, T/C","second compound 0.00949 µM, first compound 0.00949 µM",106%
same,"viability, T/C","second compound 0.00949 µM, first compound 0.03 µM",112%
same,"viability, T/C","second compound 0.00949 µM, first compound 0.0949 µM",140%
same,"viability, T/C","second compound 0.00949 µM, first compound 0.3 µM",118%
same,"viability, T/C","second compound 0.00949 µM, first compound 0.949 µM",79%
same,"viability, T/C","second compound 0.00949 µM, first compound 3 µM",77.2%
same,"viability, T/C","second compound 0.03 µM, first compound 0.00949 µM",107%
same,"viability, T/C","second compound 0.03 µM, first compound 0.03 µM",127%
same,"viability, T/C","second compound 0.03 µM, first compound 0.0949 µM",126%
same,"viability, T/C","second compound 0.03 µM, first compound 0.3 µM",103%
same,"viability, T/C","second compound 0.03 µM, first compound 0.949 µM",82.2%
same,"viability, T/C","second compound 0.03 µM, first compound 3 µM",73.7%
same,"viability, T/C","second compound 0.0949 µM, first compound 0.00949 µM",90.7%
same,"viability, T/C","second compound 0.0949 µM, first compound 0.03 µM",99.1%
same,"viability, T/C","second compound 0.0949 µM, first compound 0.0949 µM",112%
same,"viability, T/C","second compound 0.0949 µM, first compound 0.3 µM",89.2%
same,"viability, T/C","second compound 0.0949 µM, first compound 0.949 µM",79.8%
same,"viability, T/C","second compound 0.0949 µM, first compound 3 µM",64.4%
same,"viability, T/C","second compound 0.3 µM, first compound 0.00949 µM",74.5%
same,"viability, T/C","second compound 0.3 µM, first compound 0.03 µM",73.5%
same,"viability, T/C","second compound 0.3 µM, first compound 0.0949 µM",90.2%
same,"viability, T/C","second compound 0.3 µM, first compound 0.3 µM",80.5%
same,"viability, T/C","second compound 0.3 µM, first compound 0.949 µM",71%
same,"viability, T/C","second compound 0.3 µM, first compound 3 µM",58.1%
COc1cc(C)[nH]c(=O)c1CN1CCc2c(Cl)cc(C(OC)C3COC3)c(Cl)c2C1=O (centres undefined) + Cn1nnc2c(C(N)=O)ncn2c1=O,IC50,[1],> 10 µM
same,IC50,[2],> 10 µM
same,IC50,[3],> 10 µM
same,IC50,[4],> 10 µM
same,IC50,[5],> 10 µM
same,"viability, T/C",[6],90.6%
same,"viability, T/C",[7],93.2%
same,"viability, T/C",[8],97.7%
same,"viability, T/C",[9],106%
same,"viability, T/C",[10],88.1%
same,"viability, T/C",[11],93.3%
same,"viability, T/C",[12],97.5%
same,"viability, T/C",[13],85.8%
same,"viability, T/C",[14],97.4%
same,"viability, T/C",[15],99.5%
same,"viability, T/C",[16],95.4%
same,"viability, T/C",[17],100%
same,"viability, T/C",[18],100%
same,"viability, T/C",[19],108%
same,"viability, T/C",[20],97.2%
same,"viability, T/C",[21],92.3%
same,"viability, T/C",[22],90.2%
same,"viability, T/C",[23],91.6%
same,"viability, T/C",[24],91%
same,"viability, T/C",[25],113%
same,"viability, T/C",[26],102%
same,"viability, T/C",[27],92.3%
same,"viability, T/C",[28],94.1%
same,"viability, T/C",[29],96.5%
same,"viability, T/C",[30],109%
same,"viability, T/C",[31],106%
same,"viability, T/C",[32],114%
same,"viability, T/C",[33],89.7%
same,"viability, T/C",[34],95%
same,"viability, T/C",[35],101%
CC[C@@]1(O)C(=O)OCc2c1cc1n(c2=O)Cc2cc3c(CN(C)C)c(O)ccc3nc2-1,"viability, T/C",compound 0.003 µM,89.7% [middle of 10 runs]
same,"viability, T/C",compound 0.0949 µM,67.4% [middle of 10 runs]
same,"viability, T/C",compound 0.3 µM,51.5% [middle of 10 runs]
same,IC50,"compound alone, run of 12/12/2019",> 0.3 µM and 0.254 µM
CC(C)n1c(=O)n(C)c2cnc3cc(F)c(-c4ccc(OCCCN5CCCCC5)nc4)cc3c21 + Cn1nnc2c(C(N)=O)ncn2c1=O,IC50,[1],> 10 µM
same,IC50,[2],> 10 µM
same,IC50,[3],> 10 µM
same,IC50,[4],> 10 µM
same,IC50,[5],> 10 µM
same,"viability, T/C",[6],86.7%
same,"viability, T/C",[7],82.1%
same,"viability, T/C",[8],85%
same,"viability, T/C",[9],95.4%
same,"viability, T/C",[10],92%
same,"viability, T/C",[11],77.9%
same,"viability, T/C",[12],83.8%
same,"viability, T/C",[13],70.6%
same,"viability, T/C",[14],83.1%
same,"viability, T/C",[15],78.7%
same,"viability, T/C",[16],81.3%
same,"viability, T/C",[17],82.5%
same,"viability, T/C",[18],76.8%
same,"viability, T/C",[19],84.7%
same,"viability, T/C",[20],89.4%
same,"viability, T/C",[21],98.5%
same,"viability, T/C",[22],96.4%
same,"viability, T/C",[23],79.1%
same,"viability, T/C",[24],94.9%
same,"viability, T/C",[25],74.8%
same,"viability, T/C",[26],81.9%
same,"viability, T/C",[27],85.2%
same,"viability, T/C",[28],98.2%
same,"viability, T/C",[29],84.7%
same,"viability, T/C",[30],85%
same,"viability, T/C",[31],93.4%
same,"viability, T/C",[32],82.1%
same,"viability, T/C",[33],88.5%
same,"viability, T/C",[34],83%
same,"viability, T/C",[35],87%
